Assay results taken from patent US20250353819A1, “ARYL HYDANTOIN COMPOUNDS AND METHODS OF USE” (priority 2022, published 2025).
Values joined by “and” are separate entries in the source; they are usually repeats but may differ in a detail not shown here. Identical values can stand only once.

How the values were obtained:
[1] = Pharmacokinetics in male Sprague Dawley rats; assay type: in vivo, rat; settings: for Plasma Concentration: oral 1 mg/kg
Description: IV and oral formulations were prepared using the same method. On the day of dosing the solid compound was dissolved in DMSO prior to addition of a saline solution (0.9% w/v). The samples were then mixed using vortexing producing colourless solutions. The IV formulation was filtered through a 0.22 μm syringe filter prior to dosing and the oral formulation was dosed without filtration.
Samples of arterial blood were collected up to 168 h post-dose. Urine samples were not collected as animals were housed in bedded cages. Arterial blood was collected directly into borosilicate vials (at 4° C.) containing heparin as anticoagulant. Once collected, blood samples were centrifuged, supernatant plasma was removed and stored frozen (−80° C.) until analysis by LC-MS. A summary of the bioanalytical method and assay validation details is included in Tables 14 and 15.
Plasma concentration versus time data were analysed using non-compartmental methods (PKSolver Version 2.0). Standard calculations for each pharmacokinetic parameter are listed below.

[2] = Plasma protein binding, mouse plasma; assay type: in vitro ADME; settings: mouse, plasma, read-out: % bound (converted)
[3] = Stability in dog cryopreserved hepatocytes; assay type: in vitro ADME; settings: Dog cryopreserved hepatocytes
[4] = Plasma protein binding (rapid equilibrium dialysis), human plasma; assay type: in vitro ADME; settings: human, plasma, read-out: % bound (converted)
LogD7.4 (shake flask) = settings: pH 7.4
CYP 2C19 = CYP 2C19 (Homo sapiens (Human), UniProt P33261); assay: CYP inhibition in human liver microsomes, 2C19; assay type: in vitro ADME
CYP 1A2 = CYP 1A2 (Homo sapiens (Human), UniProt P05177); assay: CYP inhibition in human liver microsomes, 1A2; assay type: in vitro ADME
[5] = Whole blood-to-plasma ratio, rat; assay type: in vitro ADME
Description: As part of the assessment of the IV pharmacokinetics, an additional blood sample was collected from each rat at 1 h post dose for the purposes of determining the whole blood-to-plasma (B/P) ratio. Arterial blood was collected into tubes containing heparin. The haematocrit was determined via centrifugation (13000×g for 4 min using a Clemets® Microhematocrit centrifuge and Safecap® Plain Self-sealing Mylar Wrapped capillary tubes), and values ranged from 41% to 42%. Each blood aliquot ([…]) was collected and matrix matched with an equivalent volume of blank plasma. The remainder of the blood sample was centrifuged and […] plasma aliquot was collected and matrix matched with an equivalent volume of blank blood. Samples were frozen on dry ice and stored at −80° C. until analysis by LC-MS.

LAPC4 cells = assay: Androgen-dependent cell-based assay (DHT, LAPC4); settings: Homo sapiens; DHT-induced, androgen-dependent LAPC4 prostate cancer cell line; read-out: LAPC4 IC50
Description: Androgen-Dependent Cell-based Assay. As described by Jones and Diamond (2008), LAPC4 cells were cultured in phenol red free RPMI 1640 media supplemented with antibiotics and 10% FBS. […] […] Mean-effect plots (log[compound] vs. log[fractional effect]) were generated to determine the IC50 values for each test compound or combinations of test compounds at constant ratios.

[6] = Plasma protein binding, rat plasma; assay type: in vitro ADME; settings: read-out: % bound (converted)
[7] = Plasma protein binding, dog plasma; assay type: in vitro ADME; settings: read-out: % bound (converted)
[8] = Partition coefficient (Log D) by gradient HPLC; assay type: physicochemical; settings: pH 7.4, chromatographic estimate; read-out: gLogD7.4
Excerpt: Partition Coefficient. Partition coefficient values (Log D) of the test compounds were estimated by correlation of their chromatographic retention properties against the characteristics of a series of standard compounds with known partition coefficient values using gradient HPLC (modification of a method reported by Lombardo et al., 2001).

[9] = Stability in mouse cryopreserved hepatocytes; assay type: in vitro ADME
[10] = In vitro metabolic stability, human liver microsomes; assay type: in vitro ADME; settings: human liver microsomes; read-out: h CLint
Description: In Vitro Metabolic Stability. As described by Charman et al. (2020), metabolic stability assays were performed by incubating test compounds in liver microsomes at 37° C. and 0.4 mg/mL protein concentration. The metabolic reaction was initiated by the addition of an NADPH-regenerating system and quenched at various time points over a 60 min incubation period by the addition of acetonitrile containing diazepam as internal standard. Control samples (containing no NADPH) were included (and quenched at 2, 30 and 60 min) to monitor for potential degradation in the absence of cofactor.

[11] = rats, IV 1 mg/kg, individual rats
[12] = rats, PO 1 mg/kg, individual rats

CYP 2C19, sequence (P33261 whole entry): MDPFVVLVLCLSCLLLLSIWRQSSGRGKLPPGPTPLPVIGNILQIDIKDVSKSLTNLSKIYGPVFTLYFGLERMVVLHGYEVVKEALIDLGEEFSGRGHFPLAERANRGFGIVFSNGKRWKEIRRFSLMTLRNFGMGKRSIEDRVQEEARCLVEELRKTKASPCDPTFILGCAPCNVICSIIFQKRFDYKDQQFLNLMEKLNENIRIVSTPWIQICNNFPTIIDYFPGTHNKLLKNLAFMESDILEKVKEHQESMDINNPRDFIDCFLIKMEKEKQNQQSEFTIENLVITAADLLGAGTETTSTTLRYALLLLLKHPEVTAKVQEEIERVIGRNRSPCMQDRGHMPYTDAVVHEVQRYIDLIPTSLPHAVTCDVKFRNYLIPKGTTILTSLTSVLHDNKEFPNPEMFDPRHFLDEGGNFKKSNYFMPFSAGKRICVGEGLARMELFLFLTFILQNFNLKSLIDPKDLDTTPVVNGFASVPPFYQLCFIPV
CYP 1A2, sequence (P05177 whole entry): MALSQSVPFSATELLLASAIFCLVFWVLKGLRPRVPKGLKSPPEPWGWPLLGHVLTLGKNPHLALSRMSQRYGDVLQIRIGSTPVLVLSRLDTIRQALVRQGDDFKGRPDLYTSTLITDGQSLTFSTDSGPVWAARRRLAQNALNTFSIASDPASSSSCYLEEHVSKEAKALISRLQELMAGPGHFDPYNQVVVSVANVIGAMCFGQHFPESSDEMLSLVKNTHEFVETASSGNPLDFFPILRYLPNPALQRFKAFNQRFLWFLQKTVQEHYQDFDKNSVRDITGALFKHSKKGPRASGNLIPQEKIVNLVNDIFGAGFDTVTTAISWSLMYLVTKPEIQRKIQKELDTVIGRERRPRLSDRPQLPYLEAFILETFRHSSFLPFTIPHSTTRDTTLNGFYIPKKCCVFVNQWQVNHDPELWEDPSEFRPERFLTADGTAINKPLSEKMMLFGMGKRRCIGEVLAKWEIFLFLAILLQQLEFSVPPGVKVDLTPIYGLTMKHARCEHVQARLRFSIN

## CC1(C)NC(=O)N(c2ccc(F)c(C(C)(F)F)c2)C1=O [Compound IC, 3-(3-(1,1-difluoroethyl)-4-fluorophenyl)-5,5-dimethylimidazolidine-2,4-dione]
[1]; 2.00 h, individual rats
  Plasma Concentration: 612 ng/mL and 506 ng/mL and 427 ng/mL
[1]; 2.00 h, mean
  Plasma Concentration: 515 ng/mL
[1]; 4.00 h, individual rats
  Plasma Concentration: 545 ng/mL and 477 ng/mL and 474 ng/mL
[1]; 4.00 h, mean
  Plasma Concentration: 499 ng/mL
[1]; 7.00 h, individual rats
  Plasma Concentration: 612 ng/mL and 559 ng/mL and 455 ng/mL
[1]; 7.00 h, mean
  Plasma Concentration: 542 ng/mL
[1]; 24.00 h, individual rats
  Plasma Concentration: 365 ng/mL and 309 ng/mL and 390 ng/mL
[1]; 24.00 h, mean
  Plasma Concentration: 355 ng/mL
[1]; 36.00 h, individual rats
  Plasma Concentration: 294 ng/mL and 183 ng/mL and 254 ng/mL
[1]; 36.00 h, mean
  Plasma Concentration: 243 ng/mL
[1]; 48.00 h, individual rats
  Plasma Concentration: 188 ng/mL and 94 ng/mL and 170 ng/mL
[1]; 48.00 h, mean
  Plasma Concentration: 151 ng/mL
[1]; 72.00 h, individual rats
  Plasma Concentration: 82.4 ng/mL and 58.1 ng/mL and 31.5 ng/mL
[1]; 72.00 h, mean
  Plasma Concentration: 57 ng/mL
[1]; 96.00 h, individual rats
  Plasma Concentration: 32.0 ng/mL and 5.1 ng/mL and 28.5 ng/mL
[1]; 96.00 h, mean
  Plasma Concentration: 21.8 ng/mL
[1]; 144.00 h, individual rats
  Plasma Concentration: 2.9 ng/mL and 4.4 ng/mL
[1]; 144.00 h, mean
  Plasma Concentration: 3.7 ng/mL
[1]; rats, 7-day sampling period after IV or oral 1 mg/kg
  adverse reactions or compound-related side effects: no adverse reactions or compound-related side effects
[1]; [11]
  Apparent t1/2: 14 h
  Blood CL: 0.589 mL/min/kg and 0.808 mL/min/kg
  Blood Vss: 0.991 L/kg and 1.19 L/kg
  Plasma AUCIV: 23.6 µg·h/mL and 17.2 µg·h/mL
  Plasma CL: 0.707 mL/min/kg and 0.970 mL/min/kg
  Plasma Vss: 1.19 L/kg and 1.43 L/kg
[1]; rats, IV 1 mg/kg, mean (n = 3)
  Apparent t1/2: 15 h
  Plasma AUCIV: 20.6 µg·h/mL
[1]; rats, IV and oral 1 mg/kg
  time for which measurable plasma concentrations were observed: up to 6 days
[1]; [12]
  Apparent t1/2: 13 h and 19 h
  BA: 113% and 85.5% and 99.2%
  Plasma AUCoral: 17.6 µg·h/mL
  Plasma Cmax: 0.559 µg/mL and 0.543 µg/mL
  Tmax: 1.0 h and 7.0 h and 12 h
[1]; rats, PO 1 mg/kg, mean (n = 3)
  Apparent t1/2: 16 h
  Plasma Cmax: 0.572 µg/mL
[2]
  fraction unbound: 0.38
[3]
  CLint: <1.9 μL/min/10^6
[4]
  fraction unbound: 0.34
LogD7.4 (shake flask)
  LogD7.4 (shake flask): 2.1
  logD: 2.1
CYP 2C19
  IC50: > 20 µM
CYP 1A2
  IC50: > 20 µM
[5]
  B:P: 1.2
LAPC4 cells
  IC50: > 100 µM
[6]
  fraction unbound: 0.38
[7]
  fraction unbound: 0.36
[8]
  chromatographic logD: 2.6
[9]
  CLint: <1.8 μL/min/10^6
[10]
  microsomal CLint: 7 µL/min/mg
